Our source for the EC50 values is patent US20090197897A1, “Novel Oxadiazole Derivatives and Their Use as Positive Allosteric Modulators of Metabotropic Glutamate Receptors” (Addex Pharma SA, priority 2005, published 2009).

For the test, the target named is T1, rat mGluR5 (Rattus norvegicus, UniProt P31424).
T1 construct: expressed in transfected cells
T1 sequence (P31424 21-1171 isoform P31424-2 limits assumed): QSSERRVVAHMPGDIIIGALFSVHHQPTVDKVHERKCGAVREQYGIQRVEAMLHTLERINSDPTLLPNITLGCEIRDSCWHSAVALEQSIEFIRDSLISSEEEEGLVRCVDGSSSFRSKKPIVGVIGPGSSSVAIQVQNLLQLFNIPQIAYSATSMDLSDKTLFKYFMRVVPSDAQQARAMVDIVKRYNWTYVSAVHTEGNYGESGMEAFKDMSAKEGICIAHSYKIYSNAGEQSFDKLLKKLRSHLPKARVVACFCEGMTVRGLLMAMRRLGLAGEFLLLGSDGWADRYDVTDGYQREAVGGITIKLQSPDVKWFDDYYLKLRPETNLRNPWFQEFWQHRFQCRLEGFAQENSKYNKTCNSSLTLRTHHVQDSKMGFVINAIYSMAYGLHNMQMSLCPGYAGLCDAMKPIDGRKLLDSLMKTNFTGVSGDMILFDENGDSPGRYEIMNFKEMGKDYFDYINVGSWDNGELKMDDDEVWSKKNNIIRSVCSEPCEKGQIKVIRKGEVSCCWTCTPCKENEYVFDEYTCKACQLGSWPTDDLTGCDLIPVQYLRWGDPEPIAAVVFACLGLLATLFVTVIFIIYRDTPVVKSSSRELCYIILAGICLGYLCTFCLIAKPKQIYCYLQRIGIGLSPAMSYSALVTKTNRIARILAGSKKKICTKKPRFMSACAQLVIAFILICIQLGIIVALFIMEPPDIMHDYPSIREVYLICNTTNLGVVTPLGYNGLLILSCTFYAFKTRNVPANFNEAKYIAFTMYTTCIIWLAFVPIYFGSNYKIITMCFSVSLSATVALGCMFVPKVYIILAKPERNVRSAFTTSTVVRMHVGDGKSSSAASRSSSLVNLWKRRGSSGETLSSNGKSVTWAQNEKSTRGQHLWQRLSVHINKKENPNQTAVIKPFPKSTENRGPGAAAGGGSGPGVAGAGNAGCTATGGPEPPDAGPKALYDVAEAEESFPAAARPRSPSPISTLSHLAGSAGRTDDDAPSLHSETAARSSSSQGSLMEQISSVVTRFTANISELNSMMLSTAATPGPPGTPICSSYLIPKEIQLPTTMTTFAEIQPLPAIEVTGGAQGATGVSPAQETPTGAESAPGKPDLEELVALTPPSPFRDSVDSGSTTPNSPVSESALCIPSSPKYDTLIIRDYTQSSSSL
In words: mGluR5 assay on HEK-expressing rat mGluR5 (fluorescent cell based Ca2+ mobilization assay). Particulars: HEK-293 cells stably expressing rat mGluR5; no co-addition of glutamate; mean of at least three independent experiments in duplicate; read-out: Ca++ Flux (mean EC50). The method, then:
mGluR5 Assay on HEK-Expressing Rat mGluR5
Positive functional expression of HEK-293 cells stably expressing rat mGluR5 receptor was determined by measuring intracellular Ca^2+ changes using a Fluorometric Imaging Plate Reader (FLIPR, Molecular Devices, Sunnyvale, Calif.) in response to glutamate or selective known mGluR5 agonists and antagonists. Rat mGluR5 RT-PCR products in HEK-293 cells were sequenced and found 100% identical to rat mGluR5 Genbank reference sequence (NM_017012). HEK-293 cells expressing rmGluR5 were maintained in media containing DMEM, dialyzed Fetal Bovine Serum (10%), Glutamax™ (2 mM), Penicillin (100 units/ml), Streptomycin (100 μg/ml), Geneticin (100 μg/ml) and Hygromycin-B (40 μg/ml) at 37° C./5% CO2.
After one day of incubation, cells were washed with assay buffer containing: 142 mM NaCl, 6 mM KCl, 1 mM […], 1 mM CaCl2, 20 mM HEPES, 1 g/L glucose, 0.125 mM sulfinpyrazone, pH 7.4. After 60 min of loading with 4 uM Fluo-4 (TefLabs, Austin, Tex.), the cells were washed three times with 50 μl of PBS Buffer and resuspended in 45 μl of assay Buffer. The plates were then transferred to a Fluorometric Imaging Plate Reader (FLIPR, Molecular Devices, Sunnyvale, Calif.) for the assessment of intracellular calcium flux. After monitoring the baseline fluorescence for 10 seconds, increasing concentrations of representative compound (from 0.01 to 60 μM) of the present invention diluted in Assay Buffer (15 μl of 4× dilutions) was added to the cell. The final DMSO concentration in the assay was 0.3%. In each experiment, fluorescence was then monitored as a function of time for 3 minutes and the data analyzed using Microsoft Excel and GraphPad Prism. Each data point was also measured two times.
Under these experimental conditions, this HEK-rat mGluR5 cell line is able to directly detect positive allosteric modulators without the need of co-addition of glutamate or mGluR5 agonist.
The concentration-response curves of representative compounds of the present invention were generated using the Prism GraphPad software (Graph Pad Inc, San Diego, USA). The curves were fitted to a four-parameter logistic equation:
(Y=Bottom+(Top−Bottom)/(1+10̂((Log EC50−X)*Hill Slope)
allowing determination of EC50 values.
The Table 1 below represents the mean EC50 obtained from at least three independent experiments of selected molecules performed in duplicate.
Consider `O=C(c1ccc(F)cc1F)N1CCC[C@H](c2nc(-c3ccc(F)cc3F)no2)C1` [Example 69, (2,4-Difluoro-phenyl)-{(S)-3-[3-(2,4-difluoro-phenyl)-[1,2,4]oxadiazol-5-yl]-piperidin-1-yl}-methanone], for which the EC50 was in the range of 1000 to 10000 nM.
The result for `O=C(c1ccc(F)cc1)N1CCC[C@H](c2nc(-c3ccsc3)no2)C1` [Example 38, (4-Fluoro-phenyl)-[(S)-3-(3-thiophen-3-yl-[1,2,4]oxadiazol-5-yl)-piperidin-1-yl]-methanone] reads < 1000 nM; that for `Cc1ccoc1C(=O)N1CCC[C@H](c2nc(-c3ccc(F)cc3)no2)C1` [Example 30, (S)-{3-[3-(4-Fluoro-phenyl)-[1,2,4]oxadiazol-5-yl]-piperidin-1-yl}-(3-methyl-furan-2-yl)-methanone], 1000 to 10000 nM.
To `O=C(c1ccsc1Br)N1CCC[C@H](c2nc(-c3ccc(F)cc3)no2)C1` [Example 28, (S)-(2-Bromo-thiophen-3-yl)-{3-[3-(4-fluoro-phenyl)-[1,2,4]oxadiazol-5-yl]-piperidin-1-yl}-methanone] belongs 1000 to 10000 nM; to `Cc1ccc(-c2noc([C@H]3CCCN(C(=O)c4ccc(F)cc4)C3)n2)o1` [Example 34, (4-Fluoro-phenyl)-{(S)-3-[3-(5-methyl-furan-2-yl)-[1,2,4]oxadiazol-5-yl]-piperidin-1-yl}-methanone], 1000 to 10000 nM; to `Cc1cc(F)ccc1C(=O)N1CCC[C@H](c2nc(-c3ccc(F)cc3)no2)C1` [Example 32, (4-Fluoro-2-methyl-phenyl)-{(S)-3-[3-(4-fluoro-phenyl)-[1,2,4]oxadiazol-5-yl]-piperidin-1-yl}-methanone], < 1000 nM.
The result for `O=C(c1ccc(F)cc1)N1CCC[C@H](c2nc(-c3cnccn3)no2)C1` [Example 57, (4-Fluoro-phenyl)-[(S)-3-(3-pyrazin-2-yl-[1,2,4]oxadiazol-5-yl)-piperidin-1-yl]-methanone] reads > 10000 nM; that for `CNc1cc(F)ccc1C(=O)N1CCC[C@H](c2nc(-c3ccc(F)cc3)no2)C1` [Example 42, (4-Fluoro-2-methylamino-phenyl)-{(S)-3-[3-(4-fluoro-phenyl)-[1,2,4]oxadiazol-5-yl]-piperidin-1-yl}-methanone], > 10000 nM.
Turning to `Cc1oncc1C(=O)N1CCC[C@H](c2nc(-c3ccccc3F)no2)C1` [Example 61, {(S)-3-[3-(2-Fluoro-phenyl)-[1,2,4]oxadiazol-5-yl]-piperidin-1-yl}-(5-methyl-isoxazol-4-yl)-methanone], the EC50 is < 1000 nM.
The result for `O=C(c1ccc(F)c(F)c1)N1CCC[C@H](c2nc(-c3ccc(F)cc3F)no2)C1` [Example 68, (3,4-Difluoro-phenyl)-{(S)-3-[3-(2,4-difluoro-phenyl)-[1,2,4]oxadiazol-5-yl]-piperidin-1-yl}-methanone] reads < 1000 nM.
For `Cc1oncc1C(=O)N1CCC[C@H](c2nc(-c3ccsc3)no2)C1` [Example 44, (5-Methyl-isoxazol-4-yl)-[(S)-3-(3-thiophen-3-yl-[1,2,4]oxadiazol-5-yl)-piperidin-1-yl]-methanone], the EC50 was < 1000 nM.
The result for `Cc1ncc(-c2noc([C@H]3CCCN(C(=O)c4ccc(F)cc4)C3)n2)s1` [Example 72, (4-Fluoro-phenyl)-{(S)-3-[3-(2-methyl-thiazol-5-yl)-[1,2,4]oxadiazol-5-yl]-piperidin-1-yl}-methanone] reads 1000 to 10000 nM; that for `O=C(c1ccc(F)nc1)N1CCC[C@H](c2nc(-c3ccccc3F)no2)C1` [Example 64, {(S)-3-[3-(2-Fluoro-phenyl)-[1,2,4]oxadiazol-5-yl]-piperidin-1-yl}-(6-fluoro-pyridin-3-yl)-methanone], < 1000 nM; that for `Cc1oncc1C(=O)N1CCC[C@H](c2nc(-c3ccc(F)cc3F)no2)C1` [Example 65, {(S)-3-[3-(2,4-Difluoro-phenyl)-[1,2,4]oxadiazol-5-yl]-piperidin-1-yl}-(5-methyl-isoxazol-4-yl)-methanone], 1000 to 10000 nM.

One may read the EC50 as the concentration at which the effect is half-maximal.
